From US10626144B2, “Peptide derivatives and uses thereof” (Nosopharm, priority 2014, dated 2020)
Numbered stars: 1 amine (or outer) side, 2 acyl side, 3 side chain; on linkers, the order of the positions; unused ones are H or OH. Square brackets hold non-standard residues; d marks the D form. Peptide text beside a SMILES is read from it. * marks the point of attachment. Phe(3,4-(OMe)2) = COc1ccc(C[C@H](N)C(=O)O)cc1OC; Phe(3-CONH2) = NC(=O)c1cccc(C[C@H](N)C(=O)O)c1; Abu(4,4,4-F3) = N[C@@H](CC(F)(F)F)C(=O)O; Phe(4-CN) = N#Cc1ccc(C[C@H](N)C(=O)O)cc1; Phe(3-F) = N[C@@H](Cc1cccc(F)c1)C(=O)O; Phe(3-Me) = Cc1cccc(C[C@H](N)C(=O)O)c1; Dab(3S-OH) = NC[C@H](O)[C@H](N)C(=O)O; X4 = N=C(N)NCC/C=C(/N[*:1])C(=O)[*:2]; Phe(2-F) = N[C@@H](Cc1ccccc1F)C(=O)O; ΔZArg = N=C(N)NCC/C=C(\N)C(=O)O; dOrn = NCCC[C@@H](N)C(=O)O; Dab = NCC[C@H](N)C(=O)O; NH(CH2)5NH2 = NCCCCCN*; NH(CH2)4NH2 = NCCCCN*

Columns and labels:
Assay in all cases: MIC, broth microdilution (CLSI), reference strain
Details in all cases: CAMHB
[1] = system: Pseudomonas aeruginosa ATCC 27853
[2] = system: Escherichia coli ATCC 25922
[3] = system: Staphylococcus aureus ATCC 13709
[4] = system: Acinetobacter baumannii ATCC 19606

Structure (SMILES) | Pa: MIC Pseudomonas aeruginosa ATCC 27853 [1] | Ec: MIC Escherichia coli ATCC 25922 [2] | Sa: MIC Staphylococcus aureus ATCC 13709 [3] | Ab: MIC Acinetobacter baumannii ATCC 19606 [4]
N=C(N)NCC/C=C(\NC(=O)[C@H](CCCCN)NC(=O)[C@H](Cc1cnc[nH]1)NC(=O)[C@@H]1CCCN1C(=O)[C@@H](CCCN)NC(=O)CNC(=O)[C@H](CCN)NC(=O)[C@@H](NC(=O)[C@@H](N)CCCCN)[C@@H](O)CN)C(=O)O [21.2] (H-K[Dab(3S-OH)][Dab]G[dOrn]PHK[ΔZArg]-OH) | − (>32 μg/mL) | ++ (≤8 μg/mL) | ++ (≤8 μg/mL) | − (>32 μg/mL)
CC(=O)NCC[C@H](NC(=O)[C@@H](NC(=O)[C@@H](N)CCCCN)[C@@H](O)CN)C(=O)NCC(=O)N[C@H](CCCN)C(=O)N1CCC[C@H]1C(=O)N[C@@H](Cc1cnc[nH]1)C(=O)N[C@@H](CCCCN)C(=O)N/C(=C\CCNC(=N)N)C(N)=O [21.3] (H-K[Dab(3S-OH)][Dab](Ac)G[dOrn]PHK[ΔZArg]-NH2) | − (>32 μg/mL) | − (>32 μg/mL) | ++ (≤8 μg/mL) | − (>32 μg/mL)
N=C(N)NCC/C=C(\NC(=O)[C@H](CCCCN)NC(=O)[C@H](Cc1ccccc1F)NC(=O)[C@@H]1CCCN1C(=O)[C@@H](CCCN)NC(=O)CNC(=O)[C@H](CCN)NC(=O)[C@@H](NC(=O)[C@@H](N)CCCCN)[C@@H](O)CN)C(=O)O [21.4] (H-K[Dab(3S-OH)][Dab]G[dOrn]P[Phe(2-F)]K[ΔZArg]-OH) | − (>32 μg/mL) | ++ (≤8 μg/mL) | ++ (≤8 μg/mL) | − (>32 μg/mL)
COc1ccc(C[C@H](NC(=O)[C@@H]2CCCN2C(=O)[C@@H](CCCN)NC(=O)CNC(=O)[C@H](CCN)NC(=O)[C@@H](NC(=O)[C@@H](N)CCCCN)[C@@H](O)CN)C(=O)N[C@@H](CCCCN)C(=O)N/C(=C\CCNC(=N)N)C(=O)O)cc1OC [21.5] (H-K[Dab(3S-OH)][Dab]G[dOrn]P[Phe(3,4-(OMe)2)]K[ΔZArg]-OH) | − (>32 μg/mL) | ++ (≤8 μg/mL) | ++ (≤8 μg/mL) | − (>32 μg/mL)
N=C(N)NCC/C=C(\NC(=O)[C@H](CCCCN)NC(=O)[C@H](Cc1cccc(C(N)=O)c1)NC(=O)[C@@H]1CCCN1C(=O)[C@@H](CCCN)NC(=O)CNC(=O)[C@H](CCN)NC(=O)[C@@H](NC(=O)[C@@H](N)CCCCN)[C@@H](O)CN)C(=O)O [21.6] (H-K[Dab(3S-OH)][Dab]G[dOrn]P[Phe(3-CONH2)]K[ΔZArg]-OH) | − (>32 μg/mL) | ++ (≤8 μg/mL) | ++ (≤8 μg/mL) | − (>32 μg/mL)
N=C(N)NCC/C=C(\NC(=O)[C@H](CCCCN)NC(=O)[C@H](Cc1cccc(F)c1)NC(=O)[C@@H]1CCCN1C(=O)[C@@H](CCCN)NC(=O)CNC(=O)[C@H](CCN)NC(=O)[C@@H](NC(=O)[C@@H](N)CCCCN)[C@@H](O)CN)C(=O)O [21.7] (H-K[Dab(3S-OH)][Dab]G[dOrn]P[Phe(3-F)]K[ΔZArg]-OH) | − (>32 μg/mL) | ++ (≤8 μg/mL) | ++ (≤8 μg/mL) | − (>32 μg/mL)
Cc1cccc(C[C@H](NC(=O)[C@@H]2CCCN2C(=O)[C@@H](CCCN)NC(=O)CNC(=O)[C@H](CCN)NC(=O)[C@@H](NC(=O)[C@@H](N)CCCCN)[C@@H](O)CN)C(=O)N[C@@H](CCCCN)C(=O)N/C(=C\CCNC(=N)N)C(=O)O)c1 [21.8] (H-K[Dab(3S-OH)][Dab]G[dOrn]P[Phe(3-Me)]K[ΔZArg]-OH) | − (>32 μg/mL) | ++ (≤8 μg/mL) | ++ (≤8 μg/mL) | − (>32 μg/mL)
N#Cc1ccc(C[C@H](NC(=O)[C@@H]2CCCN2C(=O)[C@@H](CCCN)NC(=O)CNC(=O)[C@H](CCN)NC(=O)[C@@H](NC(=O)[C@@H](N)CCCCN)[C@@H](O)CN)C(=O)N[C@@H](CCCCN)C(=O)N/C(=C\CCNC(=N)N)C(=O)O)cc1 [21.9] (H-K[Dab(3S-OH)][Dab]G[dOrn]P[Phe(4-CN)]K[ΔZArg]-OH) | − (>32 μg/mL) | ++ (≤8 μg/mL) | ++ (≤8 μg/mL) | − (>32 μg/mL)
COc1ccc(C[C@H](NC(=O)[C@@H]2CCCN2C(=O)[C@@H](CCCN)NC(=O)CNC(=O)[C@H](CCN)NC(=O)[C@@H](NC(=O)[C@@H](N)CCCCN)[C@@H](O)CN)C(=O)N[C@@H](CCCCN)C(=O)N/C(=C\CCNC(=N)N)C(=O)O)cc1 [21.10] (H-K[Dab(3S-OH)][Dab]G[dOrn]PY(Me)K[ΔZArg]-OH) | − (>32 μg/mL) | ++ (≤8 μg/mL) | ++ (≤8 μg/mL) | − (>32 μg/mL)
N=C(N)NCC/C=C(\NC(=O)[C@H](CCCCN)NC(=O)[C@H](CC(F)(F)F)NC(=O)[C@@H]1CCCN1C(=O)[C@@H](CCCN)NC(=O)CNC(=O)[C@H](CCN)NC(=O)[C@@H](NC(=O)[C@@H](N)CCCCN)[C@@H](O)CN)C(=O)O [21.11] (H-K[Dab(3S-OH)][Dab]G[dOrn]P[Abu(4,4,4-F3)]K[ΔZArg]-OH) | − (>32 μg/mL) | ++ (≤8 μg/mL) | ++ (≤8 μg/mL) | − (>32 μg/mL)
N=C(N)NCC/C=C(\NC(=O)[C@H](CCCCN)NC(=O)[C@H](Cc1c[nH]c2ccccc12)NC(=O)[C@@H]1CCCN1C(=O)[C@@H](CCCN)NC(=O)CNC(=O)[C@H](CCN)NC(=O)[C@@H](NC(=O)[C@@H](N)CCCCN)[C@@H](O)CN)C(=O)O [21.12] (H-K[Dab(3S-OH)][Dab]G[dOrn]PWK[ΔZArg]-OH) | − (>32 μg/mL) | ++ (≤8 μg/mL) | ++ (≤8 μg/mL) | − (>32 μg/mL)

Other lines, results leading:

Pa: MIC Pseudomonas aeruginosa ATCC 27853 [1] | Ec: MIC Escherichia coli ATCC 25922 [2] | Sa: MIC Staphylococcus aureus ATCC 13709 [3] | Ab: MIC Acinetobacter baumannii ATCC 19606 [4] | Structure (SMILES)
++ (≤8 μg/mL) | ++ (≤8 μg/mL) | ++ (≤8 μg/mL) | + (≤32 μg/mL) | N=C(N)NCC/C=C(\NC(=O)[C@H](CCCCN)NC(=O)[C@H](Cc1cnc[nH]1)NC(=O)[C@@H]1CCCN1C(=O)[C@@H](CCCN)NC(=O)CNC(=O)[C@@H](NC(=O)[C@@H](NC(=O)[C@@H](N)CCCCN)[C@@H](O)CN)[C@@H](O)CN)C(=O)N[C@H](CCCCN)C(=O)NCCCCN [22.1] (H-K[Dab(3S-OH)][Dab(3S-OH)]G[dOrn]PHK[ΔZArg][dK]-{NH(CH2)4NH2})
+ (≤32 μg/mL) | ++ (≤8 μg/mL) | ++ (≤8 μg/mL) | − (>32 μg/mL) | N=C(N)NCC/C=C(\NC(=O)[C@H](CCCCN)NC(=O)[C@H](Cc1cnc[nH]1)NC(=O)[C@@H]1CCCN1C(=O)[C@@H](CCCN)NC(=O)CNC(=O)[C@@H](NC(=O)[C@@H](NC(=O)[C@@H](N)CCCCN)[C@@H](O)CN)[C@@H](O)CN)C(=O)NCCCCCN [22.2] (H-K[Dab(3S-OH)][Dab(3S-OH)]G[dOrn]PHK[ΔZArg]-{NH(CH2)5NH2})
− (>32 μg/mL) | + (≤32 μg/mL) | ++ (≤8 μg/mL) | − (>32 μg/mL) | N=C(N)NCC/C=C(\NC(=O)[C@H](CCCCN)NC(=O)[C@H](Cc1cnc[nH]1)NC(=O)[C@@H]1CCCN1C(=O)[C@@H](CCCN)NC(=O)CNC(=O)[C@@H](NC(=O)[C@@H](NC(=O)[C@H](N)CCCCN)[C@@H](O)CN)[C@@H](O)CN)C(=O)N[C@@H](CCCCN)C(=O)NCCCCN [22.6] (H-[dK][Dab(3S-OH)][Dab(3S-OH)]G[dOrn]PHK[ΔZArg]K-{NH(CH2)4NH2})
++ (≤8 μg/mL) | ++ (≤8 μg/mL) | ++ (≤8 μg/mL) | + (≤32 μg/mL) | N=C(N)NCC/C=C(/NC(=O)[C@H](CCCCN)NC(=O)[C@H](Cc1cnc[nH]1)NC(=O)[C@@H]1CCCN1C(=O)[C@@H](CCCN)NC(=O)CNC(=O)[C@@H](NC(=O)[C@@H](NC(=O)[C@@H](N)CCCCN)[C@@H](O)CN)[C@@H](O)CN)C(=O)N[C@@H](CCCCN)C(=O)NCCCCN [22.7] (H-K[Dab(3S-OH)][Dab(3S-OH)]G[dOrn]PHK[X4]K-{NH(CH2)4NH2})
++ (≤8 μg/mL) | ++ (≤8 μg/mL) | ++ (≤8 μg/mL) | + (≤32 μg/mL) | N=C(N)NCC/C=C(\NC(=O)[C@H](CCCCN)NC(=O)[C@H](Cc1cnc[nH]1)NC(=O)[C@@H]1CCCN1C(=O)[C@@H](CCCN)NC(=O)CNC(=O)[C@@H](NC(=O)[C@@H](NC(=O)[C@@H](N)CCCCN)[C@@H](O)CN)[C@@H](O)CN)C(=O)N[C@@H](CCCCN)C(N)=O [22.8] (H-K[Dab(3S-OH)][Dab(3S-OH)]G[dOrn]PHK[ΔZArg]K-NH2)
+ (≤32 μg/mL) | ++ (≤8 μg/mL) | ++ (≤8 μg/mL) | − (>32 μg/mL) | C[C@H](NC(=O)/C(=C/CCNC(=N)N)NC(=O)[C@H](CCCCN)NC(=O)[C@H](Cc1cnc[nH]1)NC(=O)[C@@H]1CCCN1C(=O)[C@@H](CCCN)NC(=O)CNC(=O)[C@@H](NC(=O)[C@@H](NC(=O)[C@@H](N)CCCCN)[C@@H](O)CN)[C@@H](O)CN)C(=O)NCCCCN [22.10] (H-K[Dab(3S-OH)][Dab(3S-OH)]G[dOrn]PHK[ΔZArg]A-{NH(CH2)4NH2})
